US20250326748A1, “COMPOUNDS AND METHODS FOR MODULATING SPLICING” (REMIX THERAPEUTICS INC., priority 2022, published 2025)
Structures can show the parent of a compound that is named as a salt. Where two headings read alike, the source gives them in different places.

Key:
MYB mRNA = assay: Splicing RT-qPCR assay, MYB canonical (CJ) and alternative (AJ) junction mRNA; format: cell-based, human; conditions: Homo sapiens; for IC50: canonical junction mRNA; for AC50: alternative junction mRNA, read-out: MYB AJ (AC50, increase in AJ mRNA)
Procedure: (§1) Compounds described herein were used to modulate RNA transcript abundance in cells. The expression of a target mRNA was measured by detecting the formation of an exon-exon junction in the canonical transcript (CJ). A compound mediated exon-inclusion event was detected by observing an increase in formation of a new junction with an alternative exon (AJ). Real-time qPCR assays were used to detect these splicing switches and interrogate the potency of various compounds towards different target genes. A high-throughput real time quantitative PCR (RT-qPCR) assay was developed to measure these two isoforms of the mRNA (CJ and AJ) for exemplary genes, such as HTT, SMN2, and MYB, together with a control housekeeping gene, GAPDH or GUSB or PPIA, used for normalization. Briefly, the A673 or K562 cell line was treated with various compounds described herein (e.g., compounds of Formula (D). After treatment, the levels of the HTT, MYB, or SMN2 mRNA targets were determined from each sample of cell lysate by cDNA synthesis followed by qPCR.
(§2) • Cells-to-CT 1-step kit: ThermoFisher A25602, Cells-to-CT lysis reagent: ThermoFisher 4391851C, TaqMan™ Fast Virus 1-Step Master Mix: ThermoFisher 4444436 • GAPDH: VIC-PL, ThermoFisher 4326317E (Assay: Hs99999905_m1)—used for K562/suspension cell lines • GUSB: VIC-PL, ThermoFisher 4326320E (Assay: Hs99999908_m1)—used for K562/suspension cell lines • PPIA: VIC-PL, ThermoFisher 4326316E (Assay: Hs99999904_m1)—used for A673/adherent cell lines
(§3) The A673 cell line was cultured in DMEM with 10% FBS. Cells were diluted with full growth media and plated in a 96-well plate (15,000 cells in 100 ul media per well). The plate was incubated at 37° C. with 5% CO2 for 24 hours to allow cells to adhere. An 11-point 3-fold serial dilution of the compounds was made in DMSO then diluted in media in an intermediate plate. Compounds were transferred from the intermediate plate to the cell plate with the top dose at a final concentration of 10 uM in the well. Final DMSO concentration was kept at or below 0.25%. The cell plate was returned to the incubator at 37° C. with 5% CO2 for an additional 24 hours.
(§4) The K562 cell line was cultured in IMDM with 10% FBS. For K562, cells were diluted with full growth media and plated in either a 96-well plate (50,000 cells in 50 uL media per well) or a 384-well plate (8,000-40,000 cells in 45 uL media per well). An 11-point 3-fold serial dilution of the compounds were made in DMSO then diluted in media in an intermediate plate. Compound was transferred from the intermediate plate to the cell plate with the top dose at a final concentration of 10 uM in the well. Final DMSO concentration was kept at or below 0.25%. Final volume was 100 uL for 96-well plate and 50 uL for 384-well plate. The cell plate was then placed in an incubator at 37° C. with 5% CO2 for 24 hours.
(§5) The cells were then gently washed with 50 uL-100 uL cold PBS before proceeding to addition of lysis buffer. 30 uL-50 μL of room temperature lysis buffer with DNAse I (and optionally RNAsin) was added to each well. Cells were shaken/mixed thoroughly at room temperature for 5-10 minutes for lysis to take place and then 3 uL-5 μL of room temperature stop solution was added and wells were shaken/mixed again. After 2-5 minutes, the cell lysate plate was transferred to ice for RT-qPCR reaction setup. The lysates could also be frozen at −80° C. for later use.
(§6) In some cases, a direct lysis buffer was used. An appropriate volume of 3× lysis buffer (10 mM Tris, 150 mM NaCl, 1.5%-2.5% Igepal and 0.1-1 U/uL RNAsin, pH 7.4) was directly added to either K562 or A673 cells in media and mixed by pipetting 3 times. The plates were then incubated at room temperature with shaking/rocking for 20-50 minutes to allow for lysis to take place. After this time, the cell lysate plate was transferred to ice to set up for the RT-qPCR reactions. The lysates could also be frozen at −80° C. for later use. […]

Target C mRNA = assay: Splicing RT-qPCR panel, Target C canonical junction (CJ) mRNA; format: cell-based, human; conditions: Homo sapiens, read-out: Target C CJ (decrease in CJ mRNA levels, IC50)
Procedure: as §1, §3, §4, §5
In some cases, a direct lysis buffer was used. An appropriate volume of 3× lysis buffer (10 mM Tris, 150 mM NaCl, 1.5%-2.5% Igepal and 0.1-1 U/uL RNAsin, pH 7.4) was directly added to either K562 or A673 cells in media and mixed by pipetting 3 times. The plates were then incubated at room temperature with shaking/rocking for 20-50 minutes to allow for lysis to take place. After this time, the cell lysate plate was transferred to ice to set up for the RT-qPCR reactions. The lysates could also be frozen at −80° C. for later use.
To set up 10 uL RT-qPCR reactions, cell lysates were transferred to 384-well qPCR plates containing the master mix according to the table below. The plates were sealed, gently vortexed, and spun down before the run. The volumes were adjusted accordingly in some instances where the reaction was carried in 20 μL. The table below summarizes the components of the RT-qPCR reactions:
The RT-qPCR reaction was performed using a QuantStudio (ThermoFisher) under the following fast cycling conditions. […]

K562 cells = assay: Cell viability, Cell Titer Glo 2.0 assay, K562; conditions: 72 hours
HTT mRNA = assay: Splicing RT-qPCR assay, HTT canonical (CJ) and alternative (AJ) junction mRNA; format: cell-based, human; conditions: Homo sapiens; for IC50: canonical junction mRNA; for AC50: alternative junction mRNA, read-out: HTT AJ (AC50, increase in AJ mRNA)
Procedure: as §1, §2, §3, §4, §5, §6

[1] = qPCR panel, read-out: MYB CJ (decrease in CJ mRNA levels, IC50)
[2] = RT-qPCR, A673 or K562 cells, 24 hours treatment
[3] = RT-qPCR, A673 or K562 cells, 24 hours treatment, read-out: MYB CJ (IC50, decrease in CJ mRNA)
[4] = 24 h, RT-qPCR, A673 or K562 cells, 24 hours treatment, read-out: HTT CJ (IC50, decrease in CJ mRNA)
[5] = qPCR panel, read-out: HTT CJ (decrease in CJ mRNA levels, IC50)

IC50 (MYB mRNA; [1]) [nM]	IC50 (MYB mRNA; [3]) [nM]	IC50 (Target C mRNA) [nM]	IC50 (HTT mRNA; [4]) [nM]	IC50 (HTT mRNA; [5]) [nM]	SMILES	AC50 (MYB mRNA; [2]) [nM]	Effect on Cell Viability, K562 (K562 cells)	AC50 (HTT mRNA; [2]) [nM]	IC50 (HTT mRNA; RT-qPCR, A673 or K562 cells, 24 hours treatment, read-out: HTT CJ (IC50, decrease in CJ mRNA)) [nM]
100 to 1000	100 to 1000	1000 to 10000	1000 to 10000	1000 to 10000	Cc1cn2nc(-c3cc(Cl)c4cc(N5CCNC6(CC6)C5)cnc4n3)cc(C)c2n1 [Compound 383]	100 to 1000	C (1000-9999 nM)	1000 to 10000	
1000 to 10000	1000 to 10000	> 10000	> 10000	> 10000	CN1CCC[C@H]2CN(c3cnc4nc(-c5cc(F)c6nn(C)cc6c5)cc(Cl)c4c3)C[C@H]21 [Compound 376, 6-[(4aS,7aS)-1-methyl-hexahydro-2H-pyrrolo[3,4-b]pyridin-6-yl]-4-chloro-2-(7-fluoro-2-methylindazol-5-yl)-1,8-naphthyridine]	1000 to 10000	C (1000-9999 nM)	> 10000	
< 100	< 100	1000 to 10000	100 to 1000	100 to 1000	Cc1c(O)c(-c2cc(C3CC3)c3cc(N4C[C@H](C)N[C@@H](C)C4)cnc3n2)cc2cn(C)nc12 [Compound 377, 5-{4-cyclopropyl-6-[(3S,5S)-3,5-dimethylpiperazin-1-yl]-1,8-naphthyridin-2-yl}-2,7-dimethylindazol-6-ol]	< 100	B (100-1000 nM)	100 to 1000	
< 100	< 100	1000 to 10000	100 to 1000	100 to 1000	Cc1c(O)c(-c2cc(C#N)c3cc(N4C[C@H](C)N[C@@H](C)C4)cnc3n2)cc2cn(C)nc12 [Compound 384, 6-[(3S,5S)-3,5-dimethylpiperazin-1-yl]-2-(6-hydroxy-2,7-dimethylindazol-5-yl)-1,8-naphthyridine-4-carbonitrile]	< 100	A (<100 nM)	100 to 1000	
< 100	< 100	1000 to 10000	100 to 1000	100 to 1000	Cn1cc2cc(-c3cc(Cl)c4cc(N5CC[C@@H](NCCF)C5)cnc4n3)c(O)cc2n1 [Compound 387, 5-{4-chloro-6-[(3R)-3-[(2-fluoroethyl)amino]pyrrolidin-1-yl]-1,8-naphthyridin-2-yl}-2-methylindazol-6-ol hydrochloride]	< 100	B (100-1000 nM)	100 to 1000	
100 to 1000	100 to 1000	> 10000	1000 to 10000	1000 to 10000	Cn1cc2cc(-c3cc(Cl)c4cc(N5CC[C@@H](N6CCC6)C5)cnc4n3)c(O)cc2n1 [Compound 386]	100 to 1000	B (100-1000 nM)	1000 to 10000	
< 100	< 100	1000 to 10000	100 to 1000	100 to 1000	Cc1c(N2C[C@H](C)N[C@@H](C)C2)cnc2nc(-c3cc4cn(C)nc4c(C)c3O)ccc12 [Compound 395, 5-{6-[(3S,5S)-3,5-dimethylpiperazin-1-yl]-5-methyl-1,8-naphthyridin-2-yl}-2,7-dimethylindazol-6-ol]	100 to 1000	B (100-1000 nM)	1000 to 10000	
100 to 1000	100 to 1000	1000 to 10000	1000 to 10000	1000 to 10000	Cc1cn2nc(-c3ccc4c(Cl)c(N5C[C@@H](C)N[C@@H](C)C5)cnc4n3)cc(C)c2n1 [Compound 392]	100 to 1000	B (100-1000 nM)	1000 to 10000	
100 to 1000	100 to 1000	> 10000	1000 to 10000	1000 to 10000	Cc1c(O)c(-c2cc(C3CC3)c3cc(N4C[C@@H](C)N[C@@H](C)C4)cnc3n2)cc2cn(C)nc12 [Compound 374, 5-{4-cyclopropyl-6-[(3R,5S)-3,5-dimethylpiperazin-1-yl]-1,8-naphthyridin-2-yl}-2,7-dimethylindazol-6-ol]	100 to 1000	C (1000-9999 nM)	1000 to 10000	
100 to 1000	100 to 1000	1000 to 10000	> 10000	> 10000	C[C@@H]1CN(c2cnc3nc(-c4cc(F)c5nn(C)cc5c4)ccc3c2Cl)C[C@H](C)N1 [Compound 391]	100 to 1000	B (100-1000 nM)	1000 to 10000	
100 to 1000	100 to 1000	> 10000	> 10000	> 10000	Cc1c(O)c(-c2cc(Cl)c3cc(N4C[C@@H]5CCCN(C)[C@@H]5C4)cnc3n2)cc2cn(C)nc12 [Compound 375]	100 to 1000	B (100-1000 nM)	> 10000	
100 to 1000	100 to 1000	> 10000	1000 to 10000	1000 to 10000	Cn1cc2cc(-c3cc(Cl)c4cc(N5CCNC6(CC6)C5)cnc4n3)cc(F)c2n1 [Compound 382]	100 to 1000	C (1000-9999 nM)	> 10000	

SMILES	IC50 (MYB mRNA; [1]) [nM]	IC50 (MYB mRNA; [3]) [nM]	IC50 (Target C mRNA) [nM]	IC50 (HTT mRNA; [4]) [nM]	IC50 (HTT mRNA; [5]) [nM]	AC50 (MYB mRNA; [2]) [nM]	Effect on Cell Viability, K562 (K562 cells)	AC50 (HTT mRNA; [2]) [nM]	IC50 (HTT mRNA; RT-qPCR, A673 or K562 cells, 24 hours treatment, read-out: HTT CJ (IC50, decrease in CJ mRNA)) [nM]
Cl.Cn1cc2cc(-c3cc(Cl)c4cc(N5CC[C@H](NCCF)C5)cnc4n3)c(O)cc2n1 [Compound 389]	100 to 1000	100 to 1000	1000 to 10000		1000 to 10000	< 100	B (100-1000 nM)	1000 to 10000	1000 to 10000
